Columns and labels:
[1] = target: T1, GABAA2 receptors (α2, β3, γ2 receptor subunits transfected into Sf9 cells) (Homo sapiens, UniProt P18507+P47869); experiment: GABAA2 Binding Method ([3H]-Flunitrazepam displacement); settings: [3H]-Flunitrazepam ~2 nM, α2β3γ2 Sf9 membranes, 1 hr at 4° C.
T1 construct: host or cells: Sf9 cells (membranes)
Procedure, shortened: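 Membranes from Sf9 cells expressing α2β3γ2 GABAA receptors incubated with ~2 nM (final) [3H]-flunitrazepam and test compound 1 h at 4 °C, then filtered on GF/B plates with cold-buffer washes. Flumazenil-defined controls; percent of control, IC50 and Ki calculated.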

[2] = target: T2, GABAA receptor α1β2γ2 (Homo sapiens, UniProt P14867+P18507); experiment: Two-electrode voltage-clamp potentiation of GABA EC10 current in Xenopus oocytes, GABAA1; type: cell-based; settings: percentage potentiation of GABA EC10 current divided by that of diazepam
T2 construct: expressed in transfected cells; host or cells: Xenopus laevis oocytes injected with cRNA
Procedure, shortened: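 Human GABAA receptors expressed in Xenopus oocytes by cRNA injection (α:β:γ molar ratio ~1:1:10 for α1β2γ2, 1:1:1 for α2β3γ2), recorded 2-10 days later by two-electrode voltage clamp at −60 mV in ND-96, pH 7.5. Modulator preapplied 30 s before GABA at per-oocyte EC10. Peak-current percent potentiation over GABA alone, normalised to diazepam.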

[3] = target: T3, GABAA receptor α2β3γ2 (Homo sapiens, UniProt P18507+P47869); experiment: Two-electrode voltage-clamp potentiation of GABA EC10 current in Xenopus oocytes, GABAA2; type: cell-based; settings: percentage potentiation of GABA EC10 current divided by that of diazepam
T3 construct: expressed in transfected cells; host or cells: Xenopus laevis oocytes injected with cRNA
Method: GABAA receptors were heterologously expressed in Xenopus oocytes by injecting cRNA corresponding to human α1, α2, α3, α5, β2, P3 and γ2 subunits of the GABAA receptor genes. The specific subunit combinations (subtypes) were as follows: α1β2γ2, α2β3γ2, α3β3γ2, and α5β3γ2. The EC10 of GABA is approximated for each cell. Stability of GABA-mediated (EC10) current is established. Modulatory effect of test compound is determined and compared across subtypes. […] Thus, the assay can characterize modulatory effects and determine subtype selectivity of test compounds on major subtypes of GABAA receptors.
Xenopus laevis frogs (Xenopus I, Kalamazoo, Mich.) were anesthetized using 0.15% tricaine. Surgically removed ovarian lobes were teased out in OR2 solution (82 NaCl, 2.5 KCl, 5 HEPES, 1.5 NaH2PO4, 1 MgCl2, 0.1 EDTA, in mM, pH 7.4). The oocytes were defolliculated by incubation in 25 mL OR2 containing 0.2% collagenase 1A (SIGMA) two times for about 60 minutes on a platform shaker and stored in Leibovitz's L-15 medium. Oocytes were injected the following day in 0.5× Leibovitz's L-15 medium containing […] gentamycin, 10 units/ml penicillin, and […] streptomycin.
Capped cRNAs from the linearized vectors containing human α1, β2 and γ2 subunits of the GABAA receptor genes were mixed in ratio of […]. Oocytes were injected with 25-50 nL of mixed RNA with an appx molar ratio for α1, β2, and γ2 as 1:1:10. Oocyte recordings were done 2-10 days after injection. The same methods apply to subtypes derived from α2β3γ2, α3β3γ2, and α5β3γ2, except for 1:1:1 ratio was used for α, β, and γ subunits.
All measurements were done in a medium containing ND-96 (96 NaCl, 2 KCl, 1.8 CaCl2.2H2O, 1 MgCl2.6H2O, 5 HEPES, in mM, pH 7.5). Two-electrode voltage-clamp recording was carried out using OpusXpress amplifier (Axon Instruments, Foster City, Calif.), which allows simultaneous recording from 8 oocytes. Oocytes were impaled with two electrodes of 1-2 MΩ tip resistance when filled with 3M KCl. Recordings were begun when membrane potential became stable at potentials negative to −50-−60 mV. Membrane potential was held at −60 mV. […] The concentration of GABA corresponded to the EC10 value calculated for each oocyte. The modulator pulses started 30 s before the GABA pulse so as to allow preincubation with the modulator. A set of 3 pulses with just GABA without modulator was given prior to the modulator-containing pulses to define the baseline GABA response. Two oocytes per each experiment were dedicated to observe the effect of diazepam on GABA response to ensure the presence of γ2 subunit in the GABAA pentameric complex, which imparts diazepam sensitivity to the complex.
Current amplitude (i) was measured from baseline to peak using Clampfit (Axon Inst., Foster City, Calif.). Potentiation was calculated as percent change from the baseline GABA current flux 100×(imod/icontrol)−1) where imod=current mediated by modulator+GABA and icontrol=current mediated by GABA alone. […] Similarly, a value of −50% potentiation means the presence of modulator caused a 50% decrease in the control current. Various other data shown here were fitted and plotted using GraphPad Prism (GraphPad Software, Inc. San Diego, Calif.). The percentage potentiation was converted to relative potentiation by dividing it with percentage potentiation value obtained from the same assay with diazepam as a control.

T2 sequence (P14867 28-456): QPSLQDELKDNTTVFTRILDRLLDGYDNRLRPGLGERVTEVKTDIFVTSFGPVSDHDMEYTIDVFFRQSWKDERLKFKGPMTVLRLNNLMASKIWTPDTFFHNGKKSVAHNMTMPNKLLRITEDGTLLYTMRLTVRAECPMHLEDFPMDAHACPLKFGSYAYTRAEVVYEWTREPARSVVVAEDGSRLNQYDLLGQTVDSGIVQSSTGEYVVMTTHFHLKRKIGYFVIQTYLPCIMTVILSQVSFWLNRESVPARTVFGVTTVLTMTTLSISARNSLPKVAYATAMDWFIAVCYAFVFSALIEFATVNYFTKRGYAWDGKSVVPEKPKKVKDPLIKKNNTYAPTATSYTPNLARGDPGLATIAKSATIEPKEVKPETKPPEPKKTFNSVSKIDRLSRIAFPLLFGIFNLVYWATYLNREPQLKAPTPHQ
T2 sequence (P47870 25-512 partner limits assumed): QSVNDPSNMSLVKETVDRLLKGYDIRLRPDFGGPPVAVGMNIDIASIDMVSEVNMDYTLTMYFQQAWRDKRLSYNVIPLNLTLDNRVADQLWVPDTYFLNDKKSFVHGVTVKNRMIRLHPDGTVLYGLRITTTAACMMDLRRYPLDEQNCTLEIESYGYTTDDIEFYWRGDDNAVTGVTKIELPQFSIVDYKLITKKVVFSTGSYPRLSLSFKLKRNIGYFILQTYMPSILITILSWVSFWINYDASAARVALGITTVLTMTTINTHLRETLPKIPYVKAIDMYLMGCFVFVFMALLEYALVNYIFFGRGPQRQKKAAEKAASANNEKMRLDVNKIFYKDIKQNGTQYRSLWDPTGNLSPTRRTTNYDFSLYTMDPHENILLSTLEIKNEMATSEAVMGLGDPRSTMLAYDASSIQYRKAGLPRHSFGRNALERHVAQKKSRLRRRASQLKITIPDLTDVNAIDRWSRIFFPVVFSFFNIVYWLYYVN
T2 sequence (P18507 40-475): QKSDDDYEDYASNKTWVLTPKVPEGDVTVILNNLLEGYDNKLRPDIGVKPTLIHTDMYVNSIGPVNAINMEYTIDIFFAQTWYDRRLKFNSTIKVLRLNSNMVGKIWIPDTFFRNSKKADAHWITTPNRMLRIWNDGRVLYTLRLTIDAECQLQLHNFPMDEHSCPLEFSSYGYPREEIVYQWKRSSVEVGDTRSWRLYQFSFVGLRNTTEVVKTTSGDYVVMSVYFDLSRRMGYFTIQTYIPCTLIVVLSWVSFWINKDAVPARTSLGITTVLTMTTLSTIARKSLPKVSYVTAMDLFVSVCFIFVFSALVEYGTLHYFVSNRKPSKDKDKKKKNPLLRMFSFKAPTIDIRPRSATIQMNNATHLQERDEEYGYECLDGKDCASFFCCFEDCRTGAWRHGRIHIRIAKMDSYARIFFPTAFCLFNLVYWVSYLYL
T1 sequence (P47869 29-451): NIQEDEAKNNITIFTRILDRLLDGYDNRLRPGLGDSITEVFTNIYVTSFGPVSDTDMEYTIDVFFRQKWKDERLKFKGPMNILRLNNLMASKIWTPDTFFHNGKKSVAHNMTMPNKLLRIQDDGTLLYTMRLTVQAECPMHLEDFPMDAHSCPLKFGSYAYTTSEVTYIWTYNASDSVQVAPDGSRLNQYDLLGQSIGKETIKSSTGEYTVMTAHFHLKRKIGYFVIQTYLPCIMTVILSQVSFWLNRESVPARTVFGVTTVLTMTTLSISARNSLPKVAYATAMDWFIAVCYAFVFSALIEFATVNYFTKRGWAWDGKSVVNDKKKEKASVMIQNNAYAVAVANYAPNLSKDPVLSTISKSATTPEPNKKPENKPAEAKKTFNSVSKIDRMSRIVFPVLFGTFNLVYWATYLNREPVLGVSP
T1 sequence (P28472 26-473 partner): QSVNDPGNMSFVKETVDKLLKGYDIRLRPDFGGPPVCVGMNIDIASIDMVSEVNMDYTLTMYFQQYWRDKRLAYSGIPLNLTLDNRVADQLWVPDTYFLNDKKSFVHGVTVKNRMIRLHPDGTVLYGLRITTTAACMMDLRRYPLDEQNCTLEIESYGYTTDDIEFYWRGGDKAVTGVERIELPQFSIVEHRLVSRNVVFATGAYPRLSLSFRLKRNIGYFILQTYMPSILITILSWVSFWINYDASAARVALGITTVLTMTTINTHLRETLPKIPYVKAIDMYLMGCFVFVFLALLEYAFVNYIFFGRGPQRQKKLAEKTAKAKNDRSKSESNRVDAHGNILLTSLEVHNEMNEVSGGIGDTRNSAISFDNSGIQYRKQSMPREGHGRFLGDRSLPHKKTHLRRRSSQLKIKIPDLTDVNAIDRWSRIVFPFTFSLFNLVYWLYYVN
T1 sequence (P18507 40-475): as the sequence (P18507 40-475) above
T3 sequence (P47869 29-451): as the sequence (P47869 29-451) above
T3 sequence (P28472 26-473 partner): as the sequence (P28472 26-473 partner) above
T3 sequence (P18507 40-475): as the sequence (P18507 40-475) above

| Structure (SMILES) | Ki [1] [nM] | Relative Potentiation for GABAA1 [2] | Relative Potentiation for GABAA2 [3] |
| --- | --- | --- | --- |
| COc1ccc(-c2c(F)ccc3c(N)c4c(nc23)CN(C2CCC2)C4=O)cc1OC [9-Amino-2-cyclobutyl-5-(3,4-dimethoxyphenyl)-6-fluoro-2,3-dihydropyrrolo[3,4-b]quinolin-1-one] | 1 | 0.083 | 0.41 |
| Nc1c2c(nc3c(-c4ncccc4F)cccc13)CN(C1CCC1)C2=O [9-Amino-2-cyclobutyl-5-(3-fluoropyridin-2-yl)-2,3-dihydropyrrolo[3,4-b]quinolin-1-one] | 4.69 | 0.017 | 0.19 |
| COc1cnccc1-c1cccc2c(N)c3c(nc12)CN(C1CCC1)C3=O [9-Amino-2-cyclobutyl-5-(3-methoxypyridin-4-yl)-2,3-dihydropyrrolo[3,4-b]quinolin-1-one] | 0.64 | 0.1 | 0.32 |
| COc1ncncc1-c1cccc2c(N)c3c(nc12)CN(C1CCC1)C3=O [9-Amino-2-cyclobutyl-5-(4-methoxy-pyrimidin-5-yl)-2,3-dihydropyrrolo[3,4-b]quinolin-1-one] | 0.631 | 0.083 | 0.52 |
| Cc1ccncc1-c1cccc2c(N)c3c(nc12)CN(C1CCC1)C3=O [9-Amino-2-cyclobutyl-5-(4-methylpyridin-3-yl)-2,3-dihydropyrrolo[3,4-b]quinolin-1-one] | 1.1 | 0.017 | 0.13 |
| COc1ccc(F)cc1-c1cccc2c(N)c3c(nc12)CN(C1CCC1)C3=O [9-Amino-2-cyclobutyl-5-(5-fluoro-2-methoxyphenyl)-2,3-dihydropyrrolo[3,4-b]quinolin-1-one] | 8.9 | 0.066 | 0.36 |
| COc1cncc(-c2cccc3c(N)c4c(nc23)CN(C2CCC2)C4=O)c1 [9-Amino-2-cyclobutyl-5-(5-methoxy-pyridin-3-yl)-2,3-dihydropyrrolo[3,4-b]quinolin-1-one] | 1.86 | 0.038 | 0.26 |
| Cc1ccc(-c2cccc3c(N)c4c(nc23)CN(C2CCC2)C4=O)nc1 [9-Amino-2-cyclobutyl-5-(5-methylpyridin-2-yl)-2,3-dihydropyrrolo[3,4-b]quinolin-1-one] | 12.7 | 0.088 | 0.13 |
| Cc1cc(-c2cccc3c(N)c4c(nc23)CN(C2CCC2)C4=O)cnc1F [9-Amino-2-cyclobutyl-5-(6-fluoro-5-methylpyridin-3-yl)-2,3-dihydropyrrolo[3,4-b]quinolin-1-one] | 8.54 | 0.018 | 0.2 |
| COc1ncc(-c2cccc3c(N)c4c(nc23)CN(C2CCC2)C4=O)cc1C [9-Amino-2-cyclobutyl-5-(6-methoxy-5-methylpyridin-3-yl)-2,3-dihydropyrrolo[3,4-b]quinolin-1-one] | 4.61 | 0.029 | 0.16 |
| COc1ccc(-c2cccc3c(N)c4c(nc23)CN(C2CCC2)C4=O)cn1 [9-Amino-2-cyclobutyl-5-(6-methoxypyridin-3-yl)-2,3-dihydropyrrolo[3,4-b]quinolin-1-one] | 6.48 | −0.035 | 0.14 |
| Nc1c2c(nc3c(-c4cnccn4)cccc13)CN(C1CCC1)C2=O [9-Amino-2-cyclobutyl-5-pyrazin-2-yl-2,3-dihydropyrrolo[3,4-b]quinolin-1-one] | 11.3 | −0.066 | 0.11 |
| Nc1c2c(nc3c(-c4ccccn4)cccc13)CN(C1CCC1)C2=O [9-Amino-2-cyclobutyl-5-pyridin-2-yl-2,3-dihydropyrrolo[3,4-b]quinolin-1-one] | 4.66 | 0.061 | 0.12 |

The remaining compounds from weak to strong by Ki [1], led by results:

| Ki [1] [nM] | Relative Potentiation for GABAA1 [2] | Relative Potentiation for GABAA2 [3] | Structure (SMILES) |
| --- | --- | --- | --- |
| 8.81 | −0.025 | 0.12 | Nc1c2c(nc3c(-c4ccc(N5CCOCC5)nc4)cccc13)CN(C1CCC1)C2=O [9-Amino-2-cyclobutyl-5-(6-morpholin-4-yl-pyridin-3-yl)-2,3-dihydropyrrolo[3,4-b]quinolin-1-one] |
| 8.36 | 0.035 | 0.26 | COc1cc(F)ccc1-c1cccc2c(N)c3c(nc12)CN(C1CCC1)C3=O [9-Amino-2-cyclobutyl-5-(4-fluoro-2-methoxyphenyl)-2,3-dihydropyrrolo[3,4-b]quinolin-1-one] |
| 6.7 | 0.065 | 0.33 | COc1cc(-c2cccc3c(N)c4c(nc23)CN(C2CCC2)C4=O)c(F)cn1 [9-Amino-2-cyclobutyl-5-(5-fluoro-2-methoxypyridin-4-yl)-2,3-dihydropyrrolo[3,4-b]quinolin-1-one] |
| 5.03 | −0.0033 | 0.2 | COc1ccc(-c2cccc3c(N)c4c(nc23)CN(C2CCC2)C4=O)c(C)n1 [9-Amino-2-cyclobutyl-5-(6-methoxy-2-methylpyridin-3-yl)-2,3-dihydropyrrolo[3,4-b]quinolin-1-one] |
| 4.73 | 0.082 | 0.43 | COc1nnccc1-c1cccc2c(N)c3c(nc12)CN(C1CCC1)C3=O [9-Amino-2-cyclobutyl-5-(3-methoxypyridazin-4-yl)-2,3-dihydropyrrolo[3,4-b]quinolin-1-one] |
| 4.44 | −0.13 | 0.21 | Cc1ccc(-c2cccc3c(N)c4c(nc23)CN(C2CCC2)C4=O)cn1 [9-Amino-2-cyclobutyl-5-(6-methylpyridin-3-yl)-2,3-dihydropyrrolo[3,4-b]quinolin-1-one] |
| 2.39 | 0.13 | 0.31 | Cc1nc(F)ccc1-c1cccc2c(N)c3c(nc12)CN(C1CCC1)C3=O [9-Amino-2-cyclobutyl-5-(6-fluoro-2-methylpyridin-3-yl)-2,3-dihydropyrrolo[3,4-b]quinolin-1-one] |
| 2.17 | −0.03 | 0.14 | Nc1c2c(nc3c(-c4nccnc4F)cccc13)CN(C1CCC1)C2=O [9-Amino-2-cyclobutyl-5-(3-fluoropyrazin-2-yl)-2,3-dihydropyrrolo[3,4-b]quinolin-1-one] |
| 1.48 | 0.085 | 0.16 | COc1cccc(-c2cccc3c(N)c4c(nc23)CN(C2CCC2)C4=O)n1 [9-Amino-2-cyclobutyl-5-(6-methoxypyridin-2-yl)-2,3-dihydropyrrolo[3,4-b]quinolin-1-one] |

From patent publication US20080318943A1, “Compounds and Uses Thereof - 848” (ASTRAZENECA AB, priority 2007, published 2008)
